Reference: ChEMBL document CHEMBL3044668, “Synthesis of (substituted benzamidostyryl) lH-benzimidazoles and their screening for anti-inflammatory activity” (Med Chem Res, 2012)

How the values were obtained:
[1] = tested on: Rattus norvegicus; assay: Anti-inflammatory activity against Rattus norvegicus Wistar albino (rat) assessed as inhibition of carrageenan-induced paw edema at 20 mg/kg, ip measured 4 hr after carrageenan challenge by plethysmometer; format: functional; details: route intraperitoneal
[2] = tested on: Rattus norvegicus; assay: Anti-inflammatory activity against Rattus norvegicus Wistar albino (rat) assessed as inhibition of carrageenan-induced paw edema at 20 mg/kg, ip measured 3 hr after carrageenan challenge by plethysmometer; format: functional; details: route intraperitoneal
[3] = tested on: Rattus norvegicus; assay: Gastrointestinal toxicity in Rattus norvegicus Wistar (rat) assessed as ulcer index at 30 mg/kg, po measured after 17 hr; format: organism-based; set-up: dose 30 mg/kg, route oral; details: in vivo
[4] = tested on: Rattus norvegicus; assay: Gastrointestinal toxicity in Rattus norvegicus Wistar (rat) assessed as ulcer index at 20 mg/kg, po measured after 17 hr; format: organism-based; set-up: dose 20 mg/kg, route oral; details: in vivo
[5] = tested on: Rattus norvegicus; assay: Anti-inflammatory activity against Rattus norvegicus Wistar albino (rat) assessed as inhibition of carrageenan-induced paw edema at 10 mg/kg, ip measured 4 hr after carrageenan challenge by plethysmometer; format: functional; details: route intraperitoneal
[6] = tested on: Rattus norvegicus; assay: Anti-inflammatory activity against Rattus norvegicus Wistar albino (rat) assessed as inhibition of carrageenan-induced paw edema at 10 mg/kg, ip measured 3 hr after carrageenan challenge by plethysmometer; format: functional; details: route intraperitoneal

O=C(N/C(=C/c1ccccc1)c1nc2ccc([N+](=O)[O-])cc2[nH]1)c1ccccc1
inhibition in vivo at 20 mg/kg [1]: 50% | inhibition in vivo at 20 mg/kg [2]: 33.3%

COc1ccc(/C=C(/NC(=O)c2ccccc2)c2nc3ccc([N+](=O)[O-])cc3[nH]2)cc1
UI [3]: 1.41 | inhibition in vivo at 20 mg/kg [1]: 51.3% | inhibition in vivo at 20 mg/kg [2]: 24.2%

O=C(N/C(=C/c1ccccc1Cl)c1nc2ccc([N+](=O)[O-])cc2[nH]1)c1ccccc1
UI [3]: 0.75 | inhibition in vivo at 20 mg/kg [1]: 59% | inhibition in vivo at 20 mg/kg [2]: 42.4%

Cc1ccc2nc(/C(=C\c3ccccc3)NC(=O)c3ccccc3)[nH]c2c1
inhibition in vivo at 20 mg/kg [1]: 46.1% | inhibition in vivo at 20 mg/kg [2]: 27.3%

COc1ccc(/C=C(/NC(=O)c2ccccc2)c2nc3ccc(C)cc3[nH]2)cc1
inhibition in vivo at 20 mg/kg [1]: 53.8% | inhibition in vivo at 20 mg/kg [2]: 30.3%

Cc1ccc2nc(/C(=C\c3ccccc3Cl)NC(=O)c3ccccc3)[nH]c2c1
inhibition in vivo at 20 mg/kg [1]: 50% | inhibition in vivo at 20 mg/kg [2]: 36.4%

O=C(N/C(=C/c1ccccc1)c1nc2ccccc2[nH]1)c1ccccc1
inhibition in vivo at 20 mg/kg [1]: 46.1% | inhibition in vivo at 20 mg/kg [2]: 39.4%

Cc1ccc(/C=C(/NC(=O)c2ccccc2)c2nc3ccccc3[nH]2)cc1
UI [3]: 1 | inhibition in vivo at 20 mg/kg [1]: 47.4% | inhibition in vivo at 20 mg/kg [2]: 39.4%

O=C(N/C(=C/c1ccc(O)cc1)c1nc2ccccc2[nH]1)c1ccccc1
inhibition in vivo at 20 mg/kg [1]: 47.4% | inhibition in vivo at 20 mg/kg [2]: 27.3%

COc1ccc(/C=C(/NC(=O)c2ccccc2)c2nc3ccccc3[nH]2)cc1
inhibition in vivo at 20 mg/kg [1]: 35.9% | inhibition in vivo at 20 mg/kg [2]: 39.4%

O=C(N/C(=C/c1ccccc1Cl)c1nc2ccccc2[nH]1)c1ccccc1
inhibition in vivo at 20 mg/kg [1]: 43.6% | inhibition in vivo at 20 mg/kg [2]: 30.3%

CN(C)c1ccc(/C=C(/NC(=O)c2ccccc2)c2nc3ccccc3[nH]2)cc1
inhibition in vivo at 20 mg/kg [1]: 34.6% | inhibition in vivo at 20 mg/kg [2]: 18.2%

COc1ccc2c(c1)c(CC(=O)O)c(C)n2C(=O)c1ccc(Cl)cc1 [INDOMETHACIN]
UI [4]: 4.5 | inhibition in vivo at 10 mg/kg [5]: 77.2% | inhibition in vivo at 10 mg/kg [6]: 48.5%
